# Laboratory results: patent publication US20170266186A1, “USE OF INHIBITORS OF BRUTON'S TYROSINE KINASE (BTK)” (Pharmacyclics LLC, priority 2011, published 2017)
# Test system: cell lines
# Test: combination of PCI-32765 with other drugs in cell lines
# Type: cell-based
# Settings: not given
row,Compound,interaction with PCI-32765 in combination
1,CN(C)Cc1c(C(=O)NCCOc2ccc(C(=O)NO)cc2)oc2ccccc12 [3-((dimethylamino)methyl)-N-(2-(4-(hydroxycarbamoyl)phenoxy)ethyl)benzofuran-2-carboxamide],weak synergy
2,COc1cc(Nc2ncc(F)c(Nc3ccc4c(n3)NC(=O)C(C)(C)O4)n2)cc(OC)c1OC [Compound R-406],weak synergy
3,Cn1c(CCCC(=O)O)nc2cc(N(CCCl)CCCl)ccc21 [bendamustine],weak synergy
4,CC(C)C[C@H](NC(=O)[C@H](Cc1ccccc1)NC(=O)c1cnccn1)B(O)O [bortezomib],weak synergy
5,N.N.O=C([O-])C1(C(=O)[O-])CCC1.[Pt+2] [carboplatin],additivity
6,COc1cccc2c1C(=O)c1c(O)c3c(c(O)c1C2=O)C[C@@](O)(C(=O)CO)C[C@@H]3O[C@H]1C[C@H](N)[C@H](O)[C@H](C)O1 [doxorubicin],additivity
7,Nc1ccn([C@@H]2O[C@H](CO)[C@@H](O)C2(F)F)c(=O)n1 [gemcitabine],weak synergy
8,Nc1cccc2c1CN(C1CCC(=O)NC1=O)C2=O (stereo not shown) [lenalidomide],weak synergy
9,CNC(=O)c1cc(Oc2ccc(NC(=O)Nc3ccc(Cl)c(C(F)(F)F)c3)cc2)ccn1 [sorafenib],weak synergy
10,CC(=O)O[C@H]1C(=O)[C@@]2(C)[C@H]([C@H](OC(=O)c3ccccc3)[C@]3(O)C[C@H](OC(=O)[C@H](O)[C@@H](NC(=O)c4ccccc4)c4ccccc4)C(C)=C1C3(C)C)[C@]1(OC(C)=O)CO[C@@H]1C[C@@H]2O [taxol],additivity
11,CO[C@H]1C[C@@H]2CC[C@@H](C)[C@@](O)(O2)C(=O)C(=O)N2CCCC[C@H]2C(=O)O[C@H]([C@H](C)C[C@@H]2CC[C@@H](OC(=O)C(C)(CO)CO)[C@H](OC)C2)CC(=O)[C@H](C)/C=C(\C)[C@@H](O)[C@@H](OC)C(=O)[C@H](C)C[C@H](C)/C=C/C=C/C=C/1C [temsirolimus],additivity
12,CC[C@]1(O)C[C@H]2CN(CCc3c([nH]c4ccccc34)[C@@](C(=O)OC)(c3cc4c(cc3OC)N(C=O)[C@H]3[C@@](O)(C(=O)OC)[C@H](OC(C)=O)[C@]5(CC)C=CCN6CC[C@]43[C@@H]65)C2)C1 [vincristine],additivity

# Test system: DLBCL xenograft
# Test: combination drug testing in a DLBCL xenograft
# Type: in vivo
# Settings: initial experiment in a DLBCL xenograft
row,Compound,interaction with PCI-32765 in combination
1,CC(C)C[C@H](NC(=O)[C@H](Cc1ccccc1)NC(=O)c1cnccn1)B(O)O [bortezomib],greater than additivity
